# Results taken from patent US11407761B2, “Derivative of β-apopicropodophyllin and method of preparing thereof” (J&C Sciences, priority 2020, dated 2022).
# What was measured:
# [1] = test system: WI-26; assay: PrestoBlue toxicity test, normal cells WI-26; type: cell-based, Human; conditions: WI-26, 48 h
# [2] = test system: MDA-MB-231; assay: PrestoBlue cell viability, MDA-MB-231; type: cell-based; conditions: Homo sapiens; breast, MDA-MB-231, 48 h
# Procedure: (§1) Human lung cancer cells A549, NCl-H460 and 7 cancer cell lines were cultured in RPMI 1640 medium containing 10% FBS (Gibco, USA) and 1% penicillin-streptomycin. Human colon cancer cell HCT-116 cell line was cultured in McCoy's 5A medium containing 10% FBS (Gibco, USA) and 1% penicillin-streptomycin. Human leukemia cancer cell HL-60 cell line was cultured in IMDM medium containing 20% FBS (Gibco, USA) and 1% penicillin-streptomycin. Human normal cell line WI-38 was cultured in MEM containing 10% FBS (Gibco, USA), 1% penicillin-streptomycin, and 1% Non-Essential Amin Acids solution. Human normal cell line HUVEC cultured in Human Endothelial Growth Medium containing. All the cells were cultured in sterilized cell culture plastic dishes or 96-well plastic plates in a humidified incubator filled with 95% air and 5% CO2 gas and maintained at a temperature of 37° C.
# (§2) First, the cells are seeded in a 96-well plate (Nunc, 165305) at a volume of 100 μl, and then cultured in an incubator overnight to confirm that they grow well on the plate. Depending on the concentration of the drugs, each well is treated with 100 μl of the compound and then incubated to allow cells and compounds to react for 48 hrs. PrestoBlue Cell Viability Reagent (Invitrogen, A13262) was added to the compound-treated well, and then the plates were incubated in a humidified incubator at 37° C. for 30 mins. Each well was measured at a fluorescence detected with the wavelength of an excitation of 560 nm and an emission of 590 nm using by microplate reader (BioTek, Synergy H1). The IC50 value is calculated by using the Gen5 software.
# [3] = test system: H460; assay: PrestoBlue cell viability, H460; type: cell-based, Human; conditions: lung
# Procedure: as §1, §2
# [4] = test system: HCT-116; assay: PrestoBlue cell viability, HCT-116; type: cell-based; conditions: Homo sapiens; colon, HCF116 (HCT-116), 48 h
# Procedure: as §1, §2
# [5] = test system: WI-38; assay: PrestoBlue toxicity test, normal cells WI-38; type: cell-based, Human; conditions: WI-38, 48 h
# Procedure: as §1, §2
# [6] = test system: HUVEC; assay: PrestoBlue toxicity test, normal cells HUVEC; type: cell-based, Human; conditions: 48 h
# Procedure: as §1, §2
# [7] = test system: HL-60; assay: PrestoBlue cell viability, HL-60; type: cell-based, Human; conditions: HL-60, 48 h, leukemia
# Procedure: as §1, §2
# [8] = test system: A549; assay: PrestoBlue cell viability, A549; type: cell-based, Human
# Procedure: as §1, §2
# [9] = test system: H146; assay: PrestoBlue cell viability, H146; type: cell-based; conditions: Homo sapiens, NCI-H146; lung, H146, 48 h
# Procedure: as §1, §2
# [10] = test system: H1975; assay: PrestoBlue cell viability, H1975; type: cell-based; conditions: Homo sapiens, NCI-H1975; lung, H1975, 48 h
# Procedure: as §1, §2
# [11] = test system: BxPC-3; assay: PrestoBlue cell viability, BxPC-3; type: cell-based; conditions: Homo sapiens; pancreas, BxPC-3, 48 h
# Procedure: as §1, §2
# [12] = test system: K562; assay: PrestoBlue cell viability, K562; type: cell-based, Human; conditions: for IC50: Homo sapiens, leukemia, K562, 48 h
# Procedure: as §1, §2
# [13] = test system: CFPAC-1; assay: PrestoBlue cell viability, CFPAC-1; type: cell-based; conditions: Homo sapiens; pancreas, CFPAC-1, 48 h
# Procedure: as §1, §2
# [14] = test system: HCC827; assay: PrestoBlue cell viability, HCC827; type: cell-based; conditions: Homo sapiens; lung, HCC827, 48 h
# Procedure: as §1, §2
# [15] = test system: H1299; assay: PrestoBlue cell viability, H1299; type: cell-based; conditions: Homo sapiens, NCI-H1299; lung, H1299, 48 h
# Procedure: as §1, §2
# [16] = test system: H1650; assay: PrestoBlue cell viability, H1650; type: cell-based; conditions: Homo sapiens, NCI-H1650; lung, H1650, 48 h
# Procedure: as §1, §2
# [17] = test system: MCF-7; assay: PrestoBlue cell viability, MCF-7; type: cell-based; conditions: Homo sapiens, MCF7; breast, MCF-7, 48 h
# Procedure: as §1, §2
# [18] = Homo sapiens, NCI-H460, H460, 48 h
SMILES,"IC50 ([1]; Homo sapiens, 48 h)",IC50 [2],"IC50 ([3]; Homo sapiens, NCI-H460, 48 h)","IC50 ([3]; H460, 48 h)",IC50 [4],IC50 ([5]; Homo sapiens),IC50 [5],IC50 [6],IC50 ([6]; Homo sapiens),IC50 ([7]; Homo sapiens),"IC50 ([8]; Homo sapiens, A549, 48 h, lung)",IC50 [9],IC50 [10],IC50 [11],IC50 [12],IC50 [13],IC50 [14],IC50 [15],IC50 [16],IC50 [17],also measured
"COc1cc([C@@H]2C3=C(COC3=O)Cc3cc4c(cc32)OCO4)cc(OC)c1OCc1ccc(C(F)(F)F)cc1 [example 7, (5S)-5-[3,5-Dimethoxy-4-(4-trifluoromethyl-benzyloxy)-phenyl]-5,9-dihydro-8H-furo[3′,4′:6,7]naphtho[2,3-d][1,3]dioxol-6-one]",≥ 50 µM,> 50 µM,≥ 50 µM,> 50 µM,> 50 µM,≥ 50 µM,> 50 µM,> 50 µM,≥ 50 µM,> 50 µM,≥ 50 µM,,,,,,,,,,"IC50 ([8]; lung, A549, 48 h): > 50 µM"
"COc1cc([C@@H]2C3=C(COC3=O)Cc3cc4c(cc32)OCO4)cc(OC)c1OCc1ccccc1 [example 3, (5S)-5-(4-Benzyloxy-3,5-dimethoxy-phenyl)-5,9-dihydro-8H-furo[3′,4′:6,7]naphtho[2,3-d][1,3]dioxol-6-one]",≥ 50 µM,> 50 µM,,,0.234 µM,≥ 50 µM,> 50 µM,> 50 µM,≥ 50 µM,,,> 50 µM,> 50 µM,> 50 µM,> 50 µM,> 50 µM,> 50 µM,> 50 µM,> 50 µM,> 50 µM,"IC50 [1]: > 50 µM; IC50 [3, 18]: 0.174 µM; IC50 [7]: 0.181 µM; IC50 ([8]; Homo sapiens; lung, A549, 48 h): 0.127 µM"
"COc1cc([C@@H]2c3cc4c(cc3[C@@H](O[C@@H]3O[C@@H]5CO[C@@H](C)O[C@H]5[C@H](O)[C@H]3O)[C@H]3COC(=O)[C@H]23)OCO4)cc(OC)c1O [Etoposide, reference compound]",,> 50 µM,,,7.29 µM,> 50 µM,,,> 50 µM,2.43 µM,,> 50 µM,> 50 µM,> 50 µM,,42 µM,> 50 µM,40.1 µM,> 50 µM,> 50 µM,"IC50 [3, 18]: 0.971 µM; IC50 ([8]; Homo sapiens; lung, A549, 48 h): 2.16 µM"
"COc1cc([C@@H]2C3=C(COC3=O)Cc3cc4c(cc32)OCO4)cc(OC)c1OC(C)=O [example 1, Acetic acid (5S)-2,6-dimethoxy-4-(6-oxo-5,6,8,9-tetrahydrofuro[3′,4′:6,7]naphtho[2,3-d][1,3]dioxol-5-yl)-phenyl ester]",≥ 50 µM,> 50 µM,0.06 µM,,0.129 µM,≥ 50 µM,> 50 µM,> 50 µM,≥ 50 µM,,0.065 µM,> 50 µM,> 50 µM,> 50 µM,> 50 µM,> 50 µM,> 50 µM,> 50 µM,> 50 µM,> 50 µM,IC50 [1]: > 50 µM; IC50 [7]: 0.03 µM
"COc1cc([C@@H]2C3=C(COC3=O)Cc3cc4c(cc32)OCO4)cc(OC)c1OCC1CCCCC1 [example 4, (5S)-5-(4-Cyclohexylmethoxy-3,5-dimethoxy-phenyl)-5,9-dihydro-8H-furo[3′,4′:6,7]naphtho[2,3-d][1,3]dioxol-6-one]",≥ 50 µM,> 50 µM,0.796 µM,,1.57 µM,≥ 50 µM,> 50 µM,> 50 µM,≥ 50 µM,> 50 µM,0.698 µM,,,,0.398 µM,,,,,,effects against the blood cancer cell line K562 (in words) [12]: particularly excellent effects
"C=CCCOc1c(OC)cc([C@@H]2C3=C(COC3=O)Cc3cc4c(cc32)OCO4)cc1OC [example 5, (5S)-5-(4-But-3-enyloxy-3,5-dimethoxy-phenyl)-5,9-dihydro-8H-furo[3′,4′:6,7]naphtho[2,3-d][1,3]dioxol-6-one]",≥ 50 µM,> 50 µM,≥ 50 µM,> 50 µM,> 50 µM,≥ 50 µM,> 50 µM,> 50 µM,≥ 50 µM,> 50 µM,≥ 50 µM,,,,,,,,,,"IC50 ([8]; lung, A549, 48 h): > 50 µM"
"COc1cc([C@@H]2C3=C(COC3=O)Cc3cc4c(cc32)OCO4)cc(OC)c1OCc1ccc(C)cc1 [example 8, (5S)-5-[3,5-Dimethoxy-4-(4-methyl-benzyloxy)-phenyl]-5,9-dihydro-8H-furo[3′,4′:6,7]naphtho[2,3-d][1,3]dioxol-6-one]",≥ 50 µM,> 50 µM,≥ 50 µM,> 50 µM,> 50 µM,≥ 50 µM,> 50 µM,> 50 µM,≥ 50 µM,> 50 µM,≥ 50 µM,,,,,,,,,,"IC50 ([8]; lung, A549, 48 h): > 50 µM"
"COc1cc([C@@H]2C3=C(COC3=O)Cc3cc4c(cc32)OCO4)cc(OC)c1OCc1ccc(F)cc1 [example 6, (5S)-5-[3,5-Dimethoxy-4-(4-fluorobenzyloxy)-phenyl]-5,9-dihydro-8H-furo[3′,4′:6,7]naphtho[2,3-d][1,3]dioxol-6-one]",≥ 50 µM,> 50 µM,0.437 µM,,> 50 µM,≥ 50 µM,> 50 µM,> 50 µM,≥ 50 µM,> 50 µM,0.288 µM,,,,0.247 µM,,,,,,effects against the blood cancer cell line K562 (in words) [12]: particularly excellent effects
"COc1cc([C@@H]2C3=C(COC3=O)Cc3cc4c(cc32)OCO4)cc(OC)c1OC(=O)c1ccccc1 [example 2, Benzoic acid (5S)-2,6-dimethoxy-4-(6-oxo-5,6,8,9-tetrahydrofuro[3′,4′:6,7]naphtho[2,3-d][1,3]dioxol-5-yl)-phenyl ester]",≥ 50 µM,> 50 µM,0.134 µM,,1.39 µM,≥ 50 µM,> 50 µM,> 50 µM,≥ 50 µM,,0.202 µM,> 50 µM,> 50 µM,> 50 µM,> 50 µM,> 50 µM,> 50 µM,> 50 µM,> 50 µM,> 50 µM,IC50 [1]: > 50 µM; IC50 [7]: 0.25 µM
